Results taken from ChEMBL document CHEMBL1201862, “PubChem BioAssay data set” (2004).
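A five-concentration, 48-hour dose response in 96-well plates underlies each endpoint, interpolated linearly between surrounding concentrations. Abbreviation: GI50, concentration required for 50% inhibition of growth.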 Calls of active or inactive are those of the source. Rule as the data show it: active = GI50 up to about 1.1 µM and inactive = higher. Non-standard residues stand in square brackets, D forms with d. Residues, ends and D or L forms follow the SMILES beside them. ξ: configuration not given here. *: point of attachment. ξNMeF = CNC(Cc1ccccc1)C(=O)O; NMeV = CN[C@H](C(=O)O)C(C)C; Boc = CC(C)(C)OC(=O)*; OBn = c1ccc(CO*)cc1

Tests used:
Assay in all cases: NCI tumour cell line growth inhibition, 48 h
[1] = test system: NCI-H522
[2] = test system: RXF 393
[3] = test system: A549
[4] = test system: SW-620
[5] = test system: SNB-19
[6] = test system: EKVX
[7] = test system: CCRF-CEM
[8] = test system: ACHN
[9] = test system: A498
[10] = test system: SNB-75
[11] = test system: TK-10
[12] = test system: MOLT-4
[13] = test system: SF-539
[14] = test system: NCI-H23
[15] = test system: HCC 2998
[16] = test system: M14
[17] = test system: RPMI-8226
[18] = test system: HL-60

Measured: GI50

CN1C(=O)CC2(C)c3cc(C=O)ccc3N(C)C12 (configuration not stated)
inactive: [1] > 100 µM | [2] > 100 µM | [3] > 100 µM | [4] > 100 µM | [5] > 100 µM | [6] > 100 µM | [7] > 100 µM | [8] > 100 µM | [9] > 100 µM | [10] 69.5 µM | [11] > 100 µM | [12] > 100 µM | [13] > 100 µM | [14] > 100 µM | [15] > 100 µM | [16] > 100 µM

COC(=O)C1CCC(N2C(=O)CCC2C(=O)OC)=N1 (configuration not stated)
inactive: [17] > 100 µM | [1] > 100 µM | [18] > 100 µM | [3] > 100 µM | [4] > 100 µM | [5] > 100 µM | [6] > 100 µM | [7] > 100 µM | [8] > 100 µM | [9] > 100 µM | [10] > 100 µM | [11] > 100 µM | [12] > 100 µM | [14] > 100 µM | [15] > 100 µM | [16] > 100 µM

Cc1cc2c(c(C(N)=O)c1C)-c1cccc(F)c1C2=O
inactive: [17] > 100 µM | [1] 41.2 µM | [3] > 100 µM | [4] > 100 µM | [5] > 100 µM | [6] > 100 µM | [7] > 100 µM | [8] > 100 µM | [9] 45.5 µM | [10] 30.3 µM | [11] > 100 µM | [12] > 100 µM | [13] > 100 µM | [14] > 100 µM | [15] > 100 µM | [16] > 100 µM

Brc1ccc2c(c1)C1C(CO2)C(c2ccccc2)=NN1c1ccccc1 (configuration not stated)
inactive: [17] 77.6 µM | [2] > 100 µM | [18] 90.8 µM | [3] > 100 µM | [4] > 100 µM | [5] > 100 µM | [6] > 100 µM | [7] > 100 µM | [8] > 100 µM | [9] > 100 µM | [10] > 100 µM | [11] > 100 µM | [12] > 100 µM | [14] > 100 µM | [15] > 100 µM

COP(=O)(OC)C(=O)N1N(c2ccc([N+](=O)[O-])cc2)C(=O)C(C)NC1(NNc1ccc([N+](=O)[O-])cc1)P(=O)(OC)OC (configuration not stated)
inactive: [17] > 100 µM | [1] > 100 µM | [18] 64.6 µM | [3] > 100 µM | [4] > 100 µM | [5] > 100 µM | [6] > 100 µM | [7] > 100 µM | [8] > 100 µM | [9] > 100 µM | [10] > 100 µM | [11] > 100 µM | [12] > 100 µM | [13] > 100 µM | [14] > 100 µM | [15] > 100 µM | [16] > 100 µM

O=c1[nH]c2c(O)cccc2c2cc3c(c(O)c12)OCO3 [NARCIPRIMINE]
inactive: [17] 25 µM | [1] 19.3 µM | [18] 6.44 µM | [3] 25.5 µM | [4] 26.6 µM | [5] 13.6 µM | [6] 25.8 µM | [7] 10 µM | [8] 15.8 µM | [9] 21.2 µM | [10] 20.8 µM | [11] 42.7 µM | [12] 16.8 µM | [13] 18 µM | [15] 19.5 µM | [16] 20.4 µM

CC(C)[C@@H](C(=O)N(C)[C@H](C(=O)N1CCC[C@H]1C(=O)OCc1ccccc1)C(C)C)N(C)C(=O)C(Cc1ccccc1)N(C)C(=O)[C@H](NC(=O)OC(C)(C)C)C(C)C (some centres not stated) (Boc-[dV][ξNMeF][NMeV][NMeV]P-OBn)
inactive: [17] 10.4 µM | [2] > 31.6 µM | [18] 19 µM | [3] > 31.6 µM | [4] > 31.6 µM | [5] > 31.6 µM | [6] > 31.6 µM | [7] > 31.6 µM | [9] > 31.6 µM | [10] 14 µM | [11] > 31.6 µM | [12] 10.7 µM | [13] > 31.6 µM | [15] > 10 µM

Cc1nc2nn(Cc3ccccc3)cc2c(=O)o1
inactive: [17] > 100 µM | [2] 44 µM | [18] > 100 µM | [3] > 100 µM | [4] > 100 µM | [5] > 100 µM | [6] > 100 µM | [7] > 100 µM | [8] > 100 µM | [9] > 100 µM | [10] > 100 µM | [11] > 100 µM | [12] > 100 µM | [13] > 100 µM | [15] > 100 µM

Cc1ccc(S(=O)(=O)NNC(=O)c2sc(-c3nc(C)c(C(=O)NNS(=O)(=O)c4ccc(C)cc4)s3)nc2C)cc1
inactive: [17] 45.3 µM | [2] > 100 µM | [18] 48.5 µM | [3] > 100 µM | [4] > 100 µM | [5] > 100 µM | [6] > 100 µM | [7] 45.6 µM | [8] 97.9 µM | [9] > 100 µM | [10] 58.3 µM | [11] > 100 µM | [12] 42.4 µM | [13] > 100 µM | [14] > 100 µM | [15] > 100 µM | [16] > 100 µM
